How the values were obtained:
[1] = target: T1, human M1 receptor (hCHRM1) (Homo sapiens, UniProt P11229); test: Measurement of M1 receptor positive allosteric modulator (M1PAM) activity, calcium fluorescence in CHO-K1 cells; assay type: cell-based; conditions: for activity (%) at 10 μM: 10 μM test compound, 100% = acetylcholine final concentration 1 μM, 0% = DMSO; for EC50: inflection point of concentration-dependent curve, in the presence of acetylcholine at EC20 concentration (final 0.8-1.0 nM), read-out: IP value
T1 construct: expressed in transfected cells
T1 sequence (P11229 1-460): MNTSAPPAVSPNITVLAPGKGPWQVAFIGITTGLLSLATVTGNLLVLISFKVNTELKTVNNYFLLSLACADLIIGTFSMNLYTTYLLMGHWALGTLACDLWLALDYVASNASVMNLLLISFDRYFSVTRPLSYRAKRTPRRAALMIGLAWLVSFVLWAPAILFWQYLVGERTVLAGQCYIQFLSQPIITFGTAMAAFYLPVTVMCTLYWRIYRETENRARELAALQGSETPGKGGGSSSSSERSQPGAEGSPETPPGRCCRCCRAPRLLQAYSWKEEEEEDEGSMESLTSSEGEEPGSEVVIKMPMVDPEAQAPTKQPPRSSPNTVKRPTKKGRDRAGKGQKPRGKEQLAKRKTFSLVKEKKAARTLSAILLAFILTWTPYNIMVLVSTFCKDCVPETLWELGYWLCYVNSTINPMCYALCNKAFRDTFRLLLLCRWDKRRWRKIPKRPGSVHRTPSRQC
Method in brief: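 CHO-K1 cells stably expressing human M1 loaded with Fluo-4 AM, then given compound plus acetylcholine at EC20 (final 0.8-1.0 nM). Calcium fluorescence read for 1 min; activity normalized to 1 μM acetylcholine (100%) and DMSO (0%), with IP taken as inflection point of concentration curve.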

[2] = test system: Male SD rats; test: Rat defecation experiment; assay type: in vivo; conditions: mean±standard error
Experimental: Rat Defecation Experiment
Male SD rats (5-6 weeks old) were used after an acclimation period for about 1 week. A test drug (1 mg/kg, 3 mg/kg, or 10 mg/kg) was suspended in 0.5% methylcellulose solution and orally administered at a volume of 5 mL/kg, and the number of feces 2 hr later was counted. Only 0.5% methylcellulose was administered to a solvent administration group.

activity (%) at 10 μM [1] [%]	EC50 [1] [nM]	Structure (SMILES)	number of feces 2 hr later ([2]; 1 mg/kg orally)	number of feces 2 hr later ([2]; 3 mg/kg orally)	number of feces 2 hr later ([2]; 10 mg/kg orally)
104	1.5	Cc1c(Cc2ccc(-c3cn(C)nn3)nc2)cc2c(=O)n([C@H]3CCOC[C@@H]3O)cnc2c1C [Example 2, 1,5-anhydro-2,3-dideoxy-3-(7,8-dimethyl-6-((6-(1-methyl-1H-1,2,3-triazol-4-yl)pyridin-3-yl)methyl)-4-oxoquinazolin-3(4H)-yl)-L-threo-pentitol]	–	–	–
103	1	CNC(=O)c1ccc(Cc2cc3c(=O)n([C@H]4CCOC[C@@H]4O)cnc3c(C)c2C)cc1F [Example 3, 1,5-anhydro-2,3-dideoxy-3-(6-(3-fluoro-4-(methylcarbamoyl)benzyl)-7,8-dimethyl-4-oxoquinazolin-3(4H)-yl)-L-threo-pentitol]	7.4 ± 0.7	7.8 ± 1.4	–
97	1.5	Cc1nn(C)cc1-c1ccc(Cc2cc3c(=O)n([C@H]4CCOC[C@@H]4O)cnc3c(C)c2C)cn1 [Example 5, 1,5-anhydro-2,3-dideoxy-3-(6-((6-(1,3-dimethyl-1H-pyrazol-4-yl)pyridin-3-yl)methyl)-7,8-dimethyl-4-oxoquinazolin-3(4H)-yl)-L-threo-pentitol]	–	–	–
99	0.96	Cc1c(Cc2ccc(-c3cnn(C)c3)nc2)cc2c(=O)n([C@H]3CCOC[C@@H]3O)cnc2c1C [Example 6, 1,5-anhydro-2,3-dideoxy-3-(7,8-dimethyl-6-((6-(1-methyl-1H-pyrazol-4-yl)pyridin-3-yl)methyl)-4-oxoquinazolin-3(4H)-yl)-L-threo-pentitol]	–	–	–
103	1.6	CNC(=O)c1ccc(Cc2cc3c(=O)n([C@H]4CCOC[C@@H]4O)nnc3c(Cl)c2C)cc1F [Example 19, 1,5-anhydro-3-(8-chloro-6-(3-fluoro-4-(methylcarbamoyl)benzyl)-7-methyl-4-oxo-1,2,3-benzotriazin-3(4H)-yl)-2,3-dideoxy-L-threo-pentitol]	–	–	–
106	1.8	COCCNC(=O)c1ccc(Cc2cc3c(=O)n([C@H]4CCOC[C@@H]4O)cnc3c(C)c2C)cc1F [Example 66, 1,5-anhydro-2,3-dideoxy-3-(6-(3-fluoro-4-((2-methoxyethyl)carbamoyl)benzyl)-7,8-dimethyl-4-oxoquinazolin-3(4H)-yl)-L-threo-pentitol]	9.9 ± 1.0	–	–
110	3.7	Cc1c(Cc2ccc(C(=O)NC[C@H]3CCCO3)c(F)c2)cc2c(=O)n([C@H]3CCOC[C@@H]3O)cnc2c1C [Example 81, 1,5-anhydro-2,3-dideoxy-3-(6-(3-fluoro-4-(((2R)-tetrahydrofuran-2-ylmethyl)carbamoyl)benzyl)-7,8-dimethyl-4-oxoquinazolin-3(4H)-yl)-L-threo-pentitol]	6.9 ± 1.1	7.0 ± 0.8	11.5 ± 1.1

Reference: patent US11560372B2, “Heterocyclic compounds useful as modulators of acetylcholine receptors” (TAKEDA PHARMACEUTICAL COMPANY LIMITED, priority 2017, dated 2023)
